Measured values reported in patent publication US20220002283A1 (Mylan Laboratories Limited, priority 2019, published 2022).

Assays:
[1] = Solid state stability, PXRD; assay type: physicochemical; parameters: key: X: crystalline; S: stable
Protocol: Thus, the X-ray diffraction patterns of the co-crystals of provided herein were measured on a PANalytical X'PertPRO Powder X-ray diffractometer equipped with goniometer of θ/θ configuration and X'celerator detector. The Cu-anode X-ray tube was operated at 45 kV and 40 mA. The experiments were conducted over the 2θ range of 2.0°-50.0°, 0.030° step size and 189.865 time per step (seconds) and all the co-crystals were characterized with above mentioned method.
(§1) The samples were analyzed by PXRD, assay and related substances by HPLC.

[2] = Solid state stability, HPLC meloxicam co-crystal assay; assay type: physicochemical; settings: for A %: Co-former Assay % / M %: Meloxicam Assay %: samples as per Examples 1, 2, 3; for Assay (% by HPLC) M % (Meloxicam Assay %): samples as per Example 7, 17 or 14
Protocol: • Instrumentation: Waters HPLC system having 2695 model pump having UV/PDA detector with Empower chromatography software or its equivalent. • Column: (A) Unison UK C18 column; (B) YMC Trait C18 EXRS Column, 250×4.6 mm, 5.0 micron; (C) Water Atlantis T3, 250×4.6 mm, 5 micron. • Mobile Phase: (A) methanol-acetonitrile-dipotassium phosphate buffer; or (B) acetonitrile-Sodium sulfate buffer solution • Detection wavelength: 210 nm and 360 nm
as §1

[3] = Solid state stability, physical and chemical (PXRD and HPLC), overall finding
Protocol: as §1

[4] = Solid state stability, impurities by HPLC; assay type: physicochemical; settings: 40° C./75% RH
Protocol: A Zorbax Eclipse XDB C18 column was used with the mobile phase of methanol-acetonitrile-10 mM phosphate buffer solution at the detection wavelength of 350 nm and 260 nm. • Instrumentation: Waters HPLC system having 2695 model pump having UV/PDA detector with Empower chromatography software or its equivalent. • Chemicals: Dipotassium hydrogen phosphate, orthophosphoric acid, acetonitrile, water, sodium hydroxide, methanol. • Column: Zorbax Eclipse XDB C18 column, 250×4.6 mm, 5 μm. • Elution: Gradient. • Flow rate: 0.8 mL/min.
as §1

[5] = 25° C./60% RH, 1 mo., samples as per Examples 1, 2, 3
[6] = 25° C./60% RH, 2 mo., samples as per Examples 1, 2, 3
[7] = 25° C./60% RH, 3 mo., samples as per Examples 1, 2, 3
[8] = 25° C./60% RH, Initial, samples as per Examples 1, 2, 3
[9] = 40° C./75% RH, 1 mo., samples as per Examples 1, 2, 3
[10] = 40° C./75% RH, 2 mo., samples as per Examples 1, 2, 3
[11] = 40° C./75% RH, 3 mo., samples as per Examples 1, 2, 3
[12] = 40° C./75% RH, Initial, samples as per Examples 1, 2, 3
[13] = 40° C./75% RH and 25° C./60% RH, three months
[14] = 1 mo., samples as per Example 7, 17 or 14
[15] = 2 mo., samples as per Example 7, 17 or 14
[16] = Initial, samples as per Example 7, 17 or 14

Structure (SMILES)	PXRD [1, 5]	PXRD [1, 6]	PXRD [1, 7]	PXRD [1, 8]	PXRD [1, 9]	PXRD [1, 10]	PXRD [1, 11]	PXRD [1, 12]	M %: Meloxicam Assay % ([2]; 25° C./60% RH, 1 mo.) [%]	A %: Co-former Assay % ([2]; 25° C./60% RH, 2 mo.) [%]	M %: Meloxicam Assay % ([2]; 25° C./60% RH, 2 mo.) [%]	A %: Co-former Assay % ([2]; 25° C./60% RH, 3 mo.) [%]	M %: Meloxicam Assay % ([2]; 25° C./60% RH, 3 mo.) [%]	A %: Co-former Assay % ([2]; 25° C./60% RH, Initial) [%]	M %: Meloxicam Assay % ([2]; 25° C./60% RH, Initial) [%]	M %: Meloxicam Assay % ([2]; 40° C./75% RH, 1 mo.) [%]	A %: Co-former Assay % ([2]; 40° C./75% RH, 2 mo.) [%]	M %: Meloxicam Assay % ([2]; 40° C./75% RH, 2 mo.) [%]	A %: Co-former Assay % ([2]; 40° C./75% RH, 3 mo.) [%]	M %: Meloxicam Assay % ([2]; 40° C./75% RH, 3 mo.) [%]	other results
CC(=O)Oc1ccccc1C(=O)O.Cc1cnc(NC(=O)C2=C(O)c3ccccc3S(=O)(=O)N2C)s1 [Meloxicam:Acetylsalicylic acid (1:1)]	S	S	S	X	S	S	S	X	66.0	33.0	66.0	33.0	65.7	33.6	65.7	65.9	32.8	65.8	33.0	65.4	A %: Co-former Assay % ([2]; 25° C./60% RH, 1 mo.): 33.4%; A %: Co-former Assay % ([2]; 40° C./75% RH, 1 mo.): 33.4%; A %: Co-former Assay % ([2]; 40° C./75% RH, Initial): 33.6%; M %: Meloxicam Assay % ([2]; 40° C./75% RH, Initial): 65.7%; physical and chemical stability [3, 13]: physically and chemically stable
Cc1cnc(NC(=O)C2=C(O)c3ccccc3S(=O)(=O)N2C)s1.O=C(O)c1ccccc1O [Meloxicam:Salicylic acid Form III (1:1)]	S	S	S	X	S	S	S	X	71.7	27.2	72.0	27.6	72.1	27.5	71.3	72.0	27.0	71.5	27.4	71.8	PXRD ([1]; 40° C./75% RH, 1 mo., samples as per Example 7, 17 or 14): S; PXRD ([1]; 40° C./75% RH, 2 mo., samples as per Example 7, 17 or 14): S; PXRD ([1]; 40° C./75% RH, Initial, samples as per Example 7, 17 or 14): X; Assay (% by HPLC) M % (Meloxicam Assay %) ([2]; 40° C./75% RH, 1 mo.): 71.4%; Assay (% by HPLC) M % (Meloxicam Assay %) ([2]; 40° C./75% RH, 2 mo.): 71.2%; Assay (% by HPLC) M % (Meloxicam Assay %) ([2]; 40° C./75% RH, Initial): 71.1%; A %: Co-former Assay % ([2]; 40° C./75% RH, Initial): 27.5%; M %: Meloxicam Assay % ([2]; 40° C./75% RH, Initial): 71.3%; physical and chemical stability [3, 13]: physically and chemically stable; physical and chemical stability ([3]; 40° C./75% RH, at least 2 months): physically and chemically stable; Impurities (% w/w, by HPLC) Ethyl Meloxicam [4, 14]: 0.003 % w/w; Impurities (% w/w, by HPLC) Other* (any other individual impurity) [4, 14]: 0.01 % w/w; Impurities (% w/w, by HPLC) Total [4, 14]: 0.04 % w/w; Impurities (% w/w, by HPLC) Methyl Meloxicam [4, 15]: 0.001 % w/w; Impurities (% w/w, by HPLC) Other* (any other individual impurity) [4, 15]: 0.01 % w/w; Impurities (% w/w, by HPLC) Total [4, 15]: 0.01 % w/w; Impurities (% w/w, by HPLC) Other* (any other individual impurity) [4, 16]: 0.01 % w/w; Impurities (% w/w, by HPLC) Total [4, 16]: 0.01 % w/w; Meloxicam Related Compounds A, B, C, and D by HPLC ([4]; any timepoint from initiation up to 2 months): ^#Meloxicam Related Compounds A, B, C, and D (see Table 4a) were not detectable at any timepoint from initiation up to 2 months.
